Patent US9089543B2, “Anti-inflammatory composition containing macrolactin A and a derivative thereof as active ingredients” (DAEWOO PHARMACEUTICAL IND. CO., LTD., priority 2009, dated 2015)
“Also recorded” adds a separate entry of the source.

How the values were obtained:
[1] = test system: COX-2 mRNA; test: Expression of COX-2 mRNA by real-time PCR in LPS-stimulated RAW264.7 cells; assay type: cell-based, murine; conditions: RAW264.7, LPS 0.1 μg/ml, 16 hours
Protocol: (§1) RAW264.7, a murine macrophage cell line, was obtained from Korean Cell Line Bank (KCLB). It was cultured in Dulvecco's modified Eagle's medium (DMEM, LONZA) containing 10% fetal bovine serum (FBS, LONZA) and 1% penicillin/streptomycin (Sigma) in an incubator at 37° C. under 5% CO2 and then sub-cultured when the cell density reached 80%. After RAW264.7 cells were cultured for 24 hours, MA (1-100 μM), MMA (10 μM), SMA (10 μM) and hydrocortisone (10 μM), which is a well-known substance having anti-inflammatory activity, were added. One hour after the addition, LPS (0.1 or 1.0 μg/ml, Sigma) was added to the mixture, which was then cultured for 8 or 16 hours. Dimethyl sulfoxide (hereinafter, “DMSO”) was used as a negative control, while LPS (0.1 or 1.0 μg/ml, Sigma) was used as a positive control without adding the macrolactin compounds.
The effect of the present macrolactin compounds on the expression of intracellular inflammatory factors, iNOS and COX-2 mRNA was investigated. Murine macrophage RAW264.7 cells adjusted to 1×10^5 cells/well were cultured in a 6-well plate for 24 hours under the conditions mentioned in Example 2 and then further cultured for 16 hours after being treated with the present macrolactin compounds and LPS (0.1 μg/ml, Sigma). Total RNA of the cultured cells was isolated by Trizol reagent (Sigma) under RNase-free conditions. A cDNA synthesis kit (TAKARA) was used to obtain a template for PCR using the separated total RNA. […]
The extent of iNOS and COX-2 mRNA expression of the mixture was determined by using a real-time gene amplifier (Corbett Life Science Rotor-gene 6000). […] When the mRNA expressions of the samples were compared with each other, that of the housekeeping gene was determined at the same time and then the relative quantity was calculated. By compensating the amount of RNA for the measured value of the housekeeping gene, the amount of mRNA produced in each sample was calculated to Ct (Threshold cycle) value.

[2] = test system: iNOS mRNA; test: Expression of iNOS mRNA by real-time PCR in LPS-stimulated RAW264.7 cells; assay type: cell-based, murine; conditions: RAW264.7, LPS 0.1 μg/ml, 16 hours; for inhibition of expression of iNOS mRNA: real-time PCR; for inhibition of iNOS mRNA expression compared to hydrocortisone: relative to hydrocortisone (10 μM)
Protocol: as §1
The effect of the present macrolactin compounds on the expression of intracellular inflammatory factors, iNOS and COX-2 mRNA was investigated. Murine macrophage RAW264.7 cells adjusted to 1×10^5 cells/well were cultured in a 6-well plate for 24 hours under the conditions mentioned in Example 2 and then further cultured for 16 hours after being treated with the present macrolactin compounds and LPS (0.1 μg/ml, Sigma). Total RNA of the cultured cells was isolated by Trizol reagent (Sigma) under RNase-free conditions. A cDNA synthesis kit (TAKARA) was used to obtain a template for PCR using the separated total RNA. To the mixture of 1 μl of Oligo dT Primer (50 μM), 1 μl of dNTP Mixture (10 mM each) and 2 μg of the template RNA, RNase-free dH2O was added to adjust the total volume to 10 μl. The mixture was maintained at 65° C. for 5 minutes and then in ice for 2 minutes. To the mixture of 10 μl of the mixture, 4 μl of 5× PrimeScript™ buffer, 0.5 μl of RNase inhibitor (40 U/μl), and 0.5 μl of PrimeScript™ RTase (200 U/μl), RNase-free dH2O was added to adjust the total volume to 20 μl. The mixture was reacted at 42° C. for 30 minutes to synthesize cDNA.
The extent of iNOS and COX-2 mRNA expression of the mixture was determined by using a real-time gene amplifier (Corbett Life Science Rotor-gene 6000). The operating condition of the real-time gene amplifier was as follows: initial denaturation started at 95° C. for 5 minutes and was then repeated 50 times at 94° C. for 30 seconds, at 57° C. for 30 seconds and 72° C. for 30 seconds. When the mRNA expressions of the samples were compared with each other, that of the housekeeping gene was determined at the same time and then the relative quantity was calculated. By compensating the amount of RNA for the measured value of the housekeeping gene, the amount of mRNA produced in each sample was calculated to Ct (Threshold cycle) value.

[3] = test system: COX-2 protein; test: Formation of COX-2 protein by western blot in LPS-stimulated RAW264.7 cells; assay type: cell-based, murine; conditions: RAW264.7, LPS 0.1 μg/ml, 16 hours
Protocol: as §1
(§2) The effect of the present macrolactin compounds on the formation of intracellular inflammatory factor, iNOS and COX-2 protein was investigated. Murine macrophage RAW264.7 cells adjusted to 1×10^6 cells/dish were cultured in a 100 mm dish for 24 hours under the conditions mentioned in Example 2 and then further cultured for 16 hours after being treated with the present macrolactin compounds and LPS (0.1 μg/ml, Sigma). The cells were washed 2-3 times with cold PBS and then collected. 100 μl of 50 mM Tris-HCl buffer, pH7.5 (0.1 M KCl, 1 mM EDTA, 1 mM DTT, 0.2 mM PMSF) were added to the collected cells, which were lysed by using liquid nitrogen. The lysate was centrifuged at 4° C. for 10 minutes at 13,000 rpm to collect the supernatant. Protein was quantitatively analyzed by the Bradford method. 50 μg of the protein was subjected to sodium dodecyl sulfate-polyacrylamide gel electrophoresis (SDS-PAGE). The SDS-PAGE gel was transferred to nitrocellulose membrane (Amersham) at 50 V for 2 hours. The nitrocellulose membrane was washed twice with 1× Tris buffered saline (TBS; 0.1 M NaCl, 10 mM Tris-HCl), to which was added 3% gelatin solution for blocking non-specific protein reaction and then reacted at room temperature for 1 hour. […]

[4] = test system: PGE2 formation in RAW264.7 cells; test: Inhibition effect on PGE2 formation (EIA kit) in LPS-stimulated RAW264.7 cells; assay type: cell-based, murine; conditions: RAW264.7, LPS 0.1 μg/ml, 16 hours; vs control treated with LPS only
Protocol: as §1
The amount of formed PGE2, an intracellular […] factor, was determined by using an Amersham prostaglandin E2 biotrak Enzymeimmunoassay (EIA) system Kit (GE Healthcare). Murine macrophage RAW264.7 cells adjusted to 2×10^4 cells/well were cultured in a 96-well plate for 24 hours under the conditions mentioned in Example 2 and then further cultured for 16 hours after being treated with the present macrolactin compounds and LPS (0.1 μg/ml, Sigma). The amount of produced PGE2 was calculated using the calibration curve which had been made through the standard solution provided by the manufacturer at an absorbance of 450 nm in a UV spectrometer. The r^2 value of the calibration curve against the standard substance was above 0.99.

[5] = test system: murine macrophage RAW264.7; test: Cytotoxicity by MTT analysis; assay type: cell-based; conditions: RAW264.7, MTT, 16 hours
Protocol: as §1
MTT analysis was used to investigate the cytotoxic effects on murine macrophage RAW264.7 of the present macrolactin compounds. The cells adjusted to 4×10^4 cells/well were cultured in a 96-well plate for 24 hours under the conditions mentioned in Example 2 and then further cultured for 16 hours after being treated with the present macrolactin compounds. After the medium was removed, 100 μl of MTT solution (2 mg/ml PBS) was added, and then the mixture was cultured in an incubator at 37° C. under 5% CO2 for 4 hours. After the MTT solution was removed, 100 μl of DMSO was added, and then the mixture was shake-cultured for 30 minutes in the dark. After the culture, the amount of free formazan was determined at 540 nm by using an ELISA reader.

[6] = test system: GM-CSF formation in RAW264.7 cells; test: Inhibition of GM-CSF formation (mouse ELISA kit) in LPS-stimulated RAW264.7 cells; assay type: cell-based, murine; conditions: RAW264.7, LPS
Protocol: (§3) The present inventors have confirmed the anti-inflammatory effects of the above macrolactin compounds to accomplish the present invention. In order to investigate the anti-inflammatory effects, a murine macrophage RAW264.7 cell line treated with each of the purified compounds was stimulated by LPS (0.1 μg/mL or 1.0 μg/mL, Sigma), and then the formation of inflammation-inducing substances 1) NO and 2) PEG2 and the expression of enzymes related to their formation were analyzed. The formation of 3) pro-inflammatory cytokines, TNF-α, IL-1β, IL-6 and GM-CSF were also analyzed by the same procedures.
(§4) 3) Suppression of pro-inflammatory cytokines by the present macrolactin compounds was determined by using a mouse ELISA kit (KOMA Biotech).
(§5) RAW264.7, a murine macrophage cell line, was obtained from Korean Cell Line Bank (KCLB). It was cultured in Dulvecco's modified Eagle's medium (DMEM, LONZA) containing 10% fetal bovine serum (FBS, LONZA) and 1% penicillin/streptomycin (Sigma) in an incubator at 37° C. under 5% CO2 and then sub-cultured when the cell density reached 80%. After RAW264.7 cells were cultured for 24 hours, MA (1-100 μM), MMA (10 μM), SMA (10 μM) and hydrocortisone (10 μM), which is a well-known substance having anti-inflammatory activity, were added. One hour after the addition, LPS (0.1 or 1.0 μg/ml, Sigma) was added to the mixture, which was then cultured for 8 or 16 hours. […]

[7] = test system: NO formation in RAW264.7 cells; test: Inhibition effect on NO formation (Griess reaction) in LPS-stimulated RAW264.7 cells; assay type: cell-based, murine; conditions: RAW264.7, LPS 0.1 μg/ml, 16 hours; MA 1-100 μM, MMA, SMA, hydrocortisone 10 μM; vs control treated with LPS only
Protocol: as §1
NO concentration in cell culture was determined by using a Nitrate/Nitrite colorimetric assay Kit (Cayman). Murine macrophage RAW264.7 cells adjusted to 1×10^5 cells/well were cultured in a 6-well plate for 24 hours under the conditions mentioned in Example 2, and then further cultured for 16 hours after being treated with the present macrolactin compounds and LPS (0.1 μg/ml, Sigma). The cultured media were treated with Griess reagent R1 (sulfanilamide) and then Griess reagent R2 (N-(1-Naphthyl)-ethylenediamine) in a 96-well plate provided by the manufacturer, and then detected the formation of purple azo group from nitrite. The amount of produced NO was calculated using the calibration curve which had been made through the standard solution provided by the manufacturer at an absorbance of 540 nm in a UV spectrometer.

[8] = test system: IL-6 formation in RAW264.7 cells; test: Inhibition of IL-6 formation (mouse ELISA kit) in LPS-stimulated RAW264.7 cells; assay type: cell-based, murine; conditions: RAW264.7, LPS
Protocol: as §3, §4, §1

[9] = test system: TNF-α formation in RAW264.7 cells; test: Inhibition of TNF-α formation (mouse ELISA kit) in LPS-stimulated RAW264.7 cells; assay type: cell-based, murine; conditions: RAW264.7, LPS; for inhibition of TNF-α formation: vs control treated with LPS only
Protocol: as §3, §4, §1

[10] = test system: iNOS protein; test: Formation of iNOS protein by western blot in LPS-stimulated RAW264.7 cells; assay type: cell-based, murine; conditions: RAW264.7, LPS 0.1 μg/ml, 16 hours
Protocol: as §1, §2

[11] = test system: vancomycin-resistant Enterococci (VRE), methicillin-resistant Staphylococcus aureus (MRSA) and Burkholderia cepacia; conditions: against VRE, compounds from Bacillus subtilis DSM 16696; cited from earlier work
[12] = test system: IL-1β formation in RAW264.7 cells; test: Inhibition of IL-1β formation (mouse ELISA kit) in LPS-stimulated RAW264.7 cells; assay type: cell-based, murine; conditions: RAW264.7, LPS
Protocol: as §3, §4, §5

Row | SMILES | inhibition of expression of COX-2 mRNA [1] | inhibition of expression of iNOS mRNA [2] | inhibition of iNOS mRNA expression compared to hydrocortisone [2] | inhibition of formation of COX-2 protein [3] | inhibition of PGE2 formation [4] | cytotoxicity compared to hydrocortisone [5] | inhibition of GM-CSF formation [6] | inhibition of NO formation [7] | inhibition of IL-6 formation [8] | inhibition effect on TNF-α formation compared to hydrocortisone / control substances ([9]; relative to hydrocortisone) | inhibition of TNF-α formation [9] | inhibition of formation of iNOS protein [10] | anti-bacterial activity [11] | inhibition of IL-1β formation [12]
1 | CC1CCC/C=C/C=C/[C@H](O)C[C@@H](O)C/C=C\C=C\[C@@H](O)C/C=C/C=C\C(=O)O1 (stereo partly drawn) [MA, macrolactin A] | strongly inhibited | strongly suppressed; also recorded: strongly inhibited | comparable to or superior to that of hydrocortisone | strongly inhibited | strongly inhibited | lower cytotoxicities | strongly inhibited | strongly inhibited | strongly inhibited | especially superior inhibition effect | inhibited | strongly inhibited | anti-bacterial effect against MRSA only | strongly inhibited
2 | C[C@@H]1CCC/C=C/C=C/[C@H](O)C[C@@H](O)C/C=C\C=C\[C@@H](OC(=O)CC(=O)O)C/C=C/C=C\C(=O)O1 [MMA, 7-O-malonyl macrolactin A] | strongly inhibited | strongly suppressed; also recorded: strongly inhibited | comparable to or superior to that of hydrocortisone | strongly inhibited | strongly inhibited | lower cytotoxicities |  | strongly inhibited; also recorded: low inhibition activities | strongly inhibited |  | inhibited | strongly inhibited | superior anti-bacterial activity | 
3 | C[C@@H]1CCC/C=C/C=C/[C@H](O)C[C@@H](O)C/C=C\C=C\[C@@H](OC(=O)CCC(=O)O)C/C=C/C=C\C(=O)O1 [SMA, 7-O-succinyl macrolactin A] | strongly inhibited | strongly suppressed; also recorded: strongly inhibited | comparable to or superior to that of hydrocortisone | strongly inhibited | strongly inhibited | lower cytotoxicities | strongly inhibited | strongly inhibited; also recorded: low inhibition activities | strongly inhibited |  | inhibited | strongly inhibited | superior anti-bacterial activity | strongly inhibited
4 | C[C@]12CCC(=O)C=C1CC[C@@H]1[C@@H]2[C@@H](O)C[C@@]2(C)[C@H]1CC[C@]2(O)C(=O)CO [hydrocortisone, reference compound] |  |  |  |  |  |  |  | strongly inhibited |  |  |  |  |  | 
